Measured values reported in patent US20240109880A1 (Insilico Medicine IP Limited, priority 2021, published 2024).

Tests used:
KAT6A = KAT6A (Homo sapiens (Human), UniProt Q92794); test: KAT6A Biochemical Assay (radiometric 384-well, [3H]-Ac-CoA, biotinylated H4(1-30) peptide); conditions: 5 nM KAT6A enzyme solution (2×), 60 min reaction at room temperature
Method: Inhibition of KAT6A enzymatic activity by test compounds was determined using a radiometric 384-well format assay. A 10-point serial dilution of the test compounds were conducted in DMSO and then a volume of 200 nL was transferred into 384-well assay plate by Echo (Labcyte). 10 μL of 2× enzyme solution (5 nM KAT6A (Active Motif) in assay buffer (50 mM Tris-HCl pH 8.0, 50 mM KCl, 0.1 mM EDTA, 5% glycerol, 1 mM DTT)) was dispensed into assay plate except for low control wells, in which 10 μL of assay buffer was transferred. The plate was incubated at room temperature for 15 min before addition of 10 μL of 2×[^3H]-acetyl coenzyme A (Ac-CoA) and substrate peptide mix solution (500 nM (KAT6A) [^3H]-Ac-CoA (PerkinElmer) and 800 nM (KAT6A) biotinylated H4(1-30) peptide (GL Biochem) in assay buffer) to each well to start reaction. The plate was incubated at room temperature for 60 min (KAT6A), and then the reaction was stopped by adding 10 μL of stop solution (cold Ac-CoA (Cayman) in 1× assay buffer). 25 μL of reaction in each well was transferred to Flashplate (PerkinElmer) and incubated for another 1 hour at room temperature. The plate was read on Microbeta and the inhibition percentage of each compound treated well was calculated based on the equation in h %=(Max−sample)/(Max−Min)*100 where Max is signal from high control wells with enzyme, and Min is signal from low control wells with assay buffer only. The in h % data were further fit in XL-Fit to obtain IC50 values using a 4-parameter logistic (4PL) sigmoidal curve model.

[1] = Permeability in Caco-2 Assay; type: in vitro ADME; conditions: human, pH 7.4, 2 hours; for efflux ratio at 2 h, 2 μM: Caco-2, 2.00 μM bi-directionally; for Papp A→B at 2 h, 2 μM: Caco-2, 2.00 μM, pH 7.40
Method: Permeability of test compounds was determined in Caco-2 Assay. Caco-2 cells purchased from ATCC were seeded onto […] (PET) in 96-well Corning Insert plates at 1×10^5 cells/cm2, and refreshed medium every 4-5 days until to the 21st to 28th day for confluent cell monolayer formation. The transport buffer in the study was HBSS with 10.0 mM HEPES at pH 7.40±0.05. Test compound was tested at 2.00 μM bi-directionally in duplicate. Digoxin was tested at 10.0 μM bi-directionally in duplicate, while nadolol and metoprolol were tested at 2.00 μM in A to B direction in duplicate. Final DMSO concentration was adjusted to less than 1%. The plate was incubated for 2 hours in CO2 incubator at 37±1° C., with 5% CO2 at saturated humidity without shaking. And all samples after mixed with acetonitrile containing internal standard were centrifuged at 3200×g for 10 min. For nadolol and metoprolol, 200 μL supernatant solution was diluted with 600 μL ultra-pure water for LC-MS/MS analysis. For digoxin and test compounds, 200 μL supernatant solution was diluted with 200 μL ultra-pure water for LC-MS/MS analysis. Concentrations of test and control compounds in starting solution, donor solution, and receiver solution were quantified by LC-MS/MS methodologies, using peak area ratio of analyte/internal standard. After transport assay, lucifer yellow rejection assay was applied to determine the Caco-2 cell monolayer integrity.

Chain of KAT6A (Q92794 whole entry): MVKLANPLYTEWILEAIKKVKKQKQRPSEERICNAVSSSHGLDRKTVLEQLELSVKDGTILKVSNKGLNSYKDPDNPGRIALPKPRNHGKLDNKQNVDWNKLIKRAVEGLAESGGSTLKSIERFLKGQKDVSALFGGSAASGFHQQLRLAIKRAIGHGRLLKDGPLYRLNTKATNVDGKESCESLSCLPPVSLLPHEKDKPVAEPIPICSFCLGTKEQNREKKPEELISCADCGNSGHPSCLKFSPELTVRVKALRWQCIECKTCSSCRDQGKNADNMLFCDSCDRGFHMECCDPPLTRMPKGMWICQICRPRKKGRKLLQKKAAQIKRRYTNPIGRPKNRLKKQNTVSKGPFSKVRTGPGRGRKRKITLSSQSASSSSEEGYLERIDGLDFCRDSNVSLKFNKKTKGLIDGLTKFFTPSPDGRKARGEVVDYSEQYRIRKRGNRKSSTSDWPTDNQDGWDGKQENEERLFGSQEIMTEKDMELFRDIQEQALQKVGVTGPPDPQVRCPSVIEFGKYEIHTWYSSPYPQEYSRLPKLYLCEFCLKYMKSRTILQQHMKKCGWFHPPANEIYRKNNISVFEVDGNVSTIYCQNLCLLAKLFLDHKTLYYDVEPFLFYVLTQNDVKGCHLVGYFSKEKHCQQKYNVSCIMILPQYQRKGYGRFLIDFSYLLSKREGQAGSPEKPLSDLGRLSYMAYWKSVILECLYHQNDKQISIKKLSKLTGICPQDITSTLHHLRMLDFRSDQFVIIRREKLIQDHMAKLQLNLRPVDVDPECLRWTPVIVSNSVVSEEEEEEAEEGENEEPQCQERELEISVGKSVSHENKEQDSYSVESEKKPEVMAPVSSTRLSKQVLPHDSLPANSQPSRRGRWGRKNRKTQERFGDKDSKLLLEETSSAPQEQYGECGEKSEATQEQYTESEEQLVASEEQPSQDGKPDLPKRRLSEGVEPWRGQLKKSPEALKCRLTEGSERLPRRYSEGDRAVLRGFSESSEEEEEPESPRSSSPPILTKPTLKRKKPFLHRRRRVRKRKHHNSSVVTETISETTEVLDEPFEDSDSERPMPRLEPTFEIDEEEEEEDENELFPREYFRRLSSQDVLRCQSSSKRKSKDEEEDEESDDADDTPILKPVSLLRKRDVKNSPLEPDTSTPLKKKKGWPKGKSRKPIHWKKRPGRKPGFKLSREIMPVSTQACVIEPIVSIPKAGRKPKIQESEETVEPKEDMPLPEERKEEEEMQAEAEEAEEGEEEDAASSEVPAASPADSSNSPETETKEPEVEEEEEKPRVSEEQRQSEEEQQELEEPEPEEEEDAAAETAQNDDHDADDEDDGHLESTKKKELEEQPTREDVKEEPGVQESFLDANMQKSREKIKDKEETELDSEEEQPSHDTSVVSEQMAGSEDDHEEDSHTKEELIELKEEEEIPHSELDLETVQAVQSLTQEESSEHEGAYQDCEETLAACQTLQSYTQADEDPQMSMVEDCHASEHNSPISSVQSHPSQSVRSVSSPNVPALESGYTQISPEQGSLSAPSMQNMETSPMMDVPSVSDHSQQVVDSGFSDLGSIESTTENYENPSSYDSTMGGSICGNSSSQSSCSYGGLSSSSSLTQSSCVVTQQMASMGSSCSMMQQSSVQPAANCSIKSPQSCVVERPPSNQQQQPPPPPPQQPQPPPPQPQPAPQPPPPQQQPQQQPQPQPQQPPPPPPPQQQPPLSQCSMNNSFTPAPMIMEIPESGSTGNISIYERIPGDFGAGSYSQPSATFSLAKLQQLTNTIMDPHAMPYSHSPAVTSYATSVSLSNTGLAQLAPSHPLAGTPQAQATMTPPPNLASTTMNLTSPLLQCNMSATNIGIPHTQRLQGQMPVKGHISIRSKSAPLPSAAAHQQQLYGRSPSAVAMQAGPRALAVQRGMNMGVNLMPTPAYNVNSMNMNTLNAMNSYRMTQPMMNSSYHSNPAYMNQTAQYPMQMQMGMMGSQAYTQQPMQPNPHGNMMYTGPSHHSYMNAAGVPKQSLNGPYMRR

Compound	IC50 (KAT6A)	efflux ratio at 2 h, 2 μM [1]	Papp A→B at 2 h, 2 μM [1]
COc1cccc(OC)c1S(=O)(=O)Nc1noc2cc(Oc3ccccn3)cc(OC)c12 [Compound 9, 2,6-dimethoxy-N-(4-methoxy-6-(pyridin-2-yloxy)benzo[d]isoxazol-3-yl)benzenesulfonamide]	10 to 100 nM	3.66	11.8 ×10⁻⁶ cm/s
COc1cccc(OC)c1S(=O)(=O)Nc1noc2cc(Cn3cccn3)c3c(c12)OCCCC3 [Compound 19]	< 10 nM	13.2	3.47 ×10⁻⁶ cm/s
COc1cccc(OC)c1S(=O)(=O)Nc1noc2cc(Oc3ccccn3)cc(OC(F)F)c12 [Compound 22, N-(4-(difluoromethoxy)-6-(pyridin-2-yloxy)benzo[d]isoxazol-3-yl)-2,6-dimethoxybenzenesulfonamide]	10 to 100 nM	6.87	3.45 ×10⁻⁶ cm/s
COc1cccc(OC)c1S(=O)(=O)Nc1noc2cc(Oc3ccccn3)c3c(c12)OCC3 [Compound 23, 2,6-dimethoxy-N-(4-(pyridin-2-yloxy)-2,3-dihydrobenzofuro [7,6-d]isoxazol-8-yl)benzenesulfonamide]	< 10 nM	14.2	1.3 ×10⁻⁶ cm/s
COc1ccnc(OC)c1S(=O)(=O)Nc1noc2cc(Oc3ccccn3)c3c(c12)OCCC3 [Compound 28, 2,4-dimethoxy-N-(5-(pyridin-2-yloxy)-3,4-dihydro-2H-chromeno[8,7-d]isoxazol-9-yl)pyridine-3-sulfonamide]	10 to 100 nM	9.58	2.38 ×10⁻⁶ cm/s
COc1cc(C)nc(OC)c1S(=O)(=O)Nc1noc2cc(Cn3cccn3)c(F)c(OCF)c12 [Compound 43, N-(6-((1H-pyrazol-1-yl)methyl)-5-fluoro-4-(fluoromethoxy)benzo[d]isoxazol-3-yl)-2,4-dimethoxy-6-methylpyridine-3-sulfonamide]	10 to 100 nM		
COc1cc(C)nc(OC)c1S(=O)(=O)Nc1noc2cc(Cn3cccn3)c(F)c(OC(F)F)c12 [Compound 44, N-(6-((1H-pyrazol-1-yl)methyl)-4-(difluoromethoxy)-5-fluorobenzo[d]isoxazol-3-yl)-2,4-dimethoxy-6-methylpyridine-3-sulfonamide]	10 to 100 nM		
COc1cccc(OC)c1S(=O)(=O)Nc1noc2cc(Cc3ccccn3)cc(OCF)c12 [Compound 45, N-(4-(fluoromethoxy)-6-(pyridin-2-ylmethyl)benzo[d]isoxazol-3-yl)-2,6-dimethoxybenzenesulfonamide]	10 to 100 nM		
COc1ccnc(OC)c1S(=O)(=O)Nc1noc2cc(Cn3cccn3)cc(OCF)c12 [Compound 48, N-(6-((1H-pyrazol-1-yl)methyl)-4-(fluoromethoxy)benzo[d]isoxazol-3-yl)-2,4-dimethoxypyridine-3-sulfonamide]	< 10 nM		
COc1cc(C2CC2)nc(OC)c1S(=O)(=O)Nc1noc2cc(Cn3cccn3)cc(OCF)c12 [Compound 49, N-(6-((1H-pyrazol-1-yl)methyl)-4-(fluoromethoxy)benzo [d]isoxazol-3-yl)-6-cyclopropyl-2,4-dimethoxypyridine-3-sulfonamide]	10 to 100 nM		
COc1cc(C(F)F)nc(OC)c1S(=O)(=O)Nc1noc2cc(Cn3cccn3)cc(OCF)c12 [Compound 50, N-(6-((1H-pyrazol-1-yl)methyl)-4-(fluoromethoxy)benzo[d]isoxazol-3-yl)-6-(difluoromethyl)-2,4-dimethoxypyridine-3-sulfonamide]	10 to 1000 nM		
COc1cc(C(F)(F)F)nc(OC)c1S(=O)(=O)Nc1noc2cc(Cn3cccn3)cc(OCF)c12 [Compound 51, N-(6-((1H-pyrazol-1-yl)methyl)-4-(fluoromethoxy)benzo[d]isoxazol-3-yl)-2,4-dimethoxy-6-(trifluoromethyl)pyridine-3-sulfonamide]	< 10 nM		
CCc1cc(OC)c(S(=O)(=O)Nc2noc3cc(Cn4cccn4)cc(OCF)c23)c(OC)n1 [Compound 52, N-(6-((1H-pyrazol-1-yl)methyl)-4-(fluoromethoxy)benzo[d]isoxazol-3-yl)-6-ethyl-2,4-dimethoxypyridine-3-sulfonamide]	10 to 100 nM		
CC#Cc1cc(OC)c(S(=O)(=O)Nc2noc3cc(Cn4cccn4)cc(OCF)c23)c(OC)n1 [Compound 53, N-(6-((1H-pyrazol-1-yl)methyl)-4-(fluoromethoxy)benzo[d]isoxazol-3-yl)-2,4-dimethoxy-6-(prop-1-yn-1-yl)pyridine-3-sulfonamide]	10 to 100 nM		
C#Cc1cc(OC)c(S(=O)(=O)Nc2noc3cc(Cn4cccn4)cc(OCF)c23)c(OC)n1 [Compound 54, N-(6-((1H-pyrazol-1-yl)methyl)-4-(fluoromethoxy)benzo[d]isoxazol-3-yl)-6-ethynyl-2,4-dimethoxypyridine-3-sulfonamide]	< 10 nM		
COc1cc(C)nc(OC)c1S(=O)(=O)Nc1noc2cc(Oc3nccs3)cc(OCF)c12 [Compound 55, N-(4-(fluoromethoxy)-6-(thiazol-2-yloxy)benzo[d]isoxazol-3-yl)-2,4-dimethoxy-6-methylpyridine-3-sulfonamide]	10 to 100 nM	12.3	1.46 ×10⁻⁶ cm/s
COc1ccccc1S(=O)(=O)Nc1noc2cc(Oc3nccs3)cc(OCF)c12 [Compound 56, N-(4-(fluoromethoxy)-6-(thiazol-2-yloxy)benzo[d]isoxazol-3-yl)-2-methoxybenzenesulfonamide]	< 10 nM	2.84	5.28 ×10⁻⁶ cm/s
COc1cc(C)nc(OC)c1S(=O)(=O)Nc1noc2cc(Oc3nccs3)cc(OC)c12 [Compound 57, 2,4-dimethoxy-N-(4-methoxy-6-(thiazol-2-yloxy)benzo[d]isoxazol-3-yl)-6-methylpyridine-3-sulfonamide]	< 10 nM		3.38 ×10⁻⁶ cm/s
COc1cccc(OC)c1S(=O)(=O)Nc1noc2cc(Oc3nccs3)cc(OCF)c12 [Compound 58]	< 10 nM	6.17	5.14 ×10⁻⁶ cm/s
COc1cccc(OC)c1S(=O)(=O)Nc1noc2cc(Oc3nccs3)cc(OC)c12 [Compound 59, 2,6-dimethoxy-N-(4-methoxy-6-(thiazol-2-yloxy)benzo[d]isoxazol-3-yl)benzenesulfonamide]	< 10 nM	4.53	6.2 ×10⁻⁶ cm/s
COc1ccccc1S(=O)(=O)Nc1noc2cc(Oc3nccs3)cc(OC)c12 [Compound 60, 2-methoxy-N-(4-methoxy-6-(thiazol-2-yloxy)benzo[d]isoxazol-3-yl)benzenesulfonamide]	< 10 nM	1.33	13.7 ×10⁻⁶ cm/s
COc1ccccc1S(=O)(=O)Nc1noc2cc(Oc3nccs3)c3c(c12)OCCC3 [Compound 61, 2-methoxy-N-(5-(thiazol-2-yloxy)-3,4-dihydro-2H-chromeno[8,7-d]isoxazol-9-yl)benzenesulfonamide]	< 10 nM	1.76	9.38 ×10⁻⁶ cm/s
COc1cccc(OC)c1S(=O)(=O)Nc1noc2cc(Oc3nccs3)c3c(c12)OCCCC3 [Compound 62, 2,6-dimethoxy-N-(6-(thiazol-2-yloxy)-2,3,4,5,9,10-hexahydrooxepino[3′,2′:5,6]benzo[1,2-d]isoxazol-10-yl)benzenesulfonamide]	< 10 nM	3.16	10.6 ×10⁻⁶ cm/s
COc1cccc(OC)c1S(=O)(=O)Nc1noc2cc(Cc3nccs3)cc(OCF)c12 [Compound 65, N-(4-(fluoromethoxy)-6-(thiazol-2-ylmethyl)benzo[d]isoxazol-3-yl)-2,6-dimethoxybenzenesulfonamide]	< 10 nM		
COc1cc(C)nc(OC)c1S(=O)(=O)Nc1noc2cc(Cn3cccn3)c3c(c12)OCC1CC31 (stereo not drawn) [Compound 69, N-(7-((1H-pyrazol-1-yl)methyl)-5,5a,6,6a-tetrahydrocyclopropa[3,4]chromeno[8,7-d]isoxazol-3-yl)-2,4-dimethoxy-6-methylpyridine-3-sulfonamide]	< 10 nM		
COc1cccc(OC)c1S(=O)(=O)Nc1noc2cc(Cn3cccn3)cc(OC)c12 [PF-9363, reference compound]			0.628 ×10⁻⁶ cm/s
